Experimental findings from ChEMBL document CHEMBL1201862, “PubChem BioAssay data set” (2004) are described below.

Data set [1] addresses Heat shock protein HSP 90-alpha (Homo sapiens, UniProt P07900). Format: functional, organism-based.
The target of data set [2] is T1, Rac GTPase-activating protein 1 (Homo sapiens, UniProt Q9H0H5).
T1 sequence (Q9H0H5 whole entry): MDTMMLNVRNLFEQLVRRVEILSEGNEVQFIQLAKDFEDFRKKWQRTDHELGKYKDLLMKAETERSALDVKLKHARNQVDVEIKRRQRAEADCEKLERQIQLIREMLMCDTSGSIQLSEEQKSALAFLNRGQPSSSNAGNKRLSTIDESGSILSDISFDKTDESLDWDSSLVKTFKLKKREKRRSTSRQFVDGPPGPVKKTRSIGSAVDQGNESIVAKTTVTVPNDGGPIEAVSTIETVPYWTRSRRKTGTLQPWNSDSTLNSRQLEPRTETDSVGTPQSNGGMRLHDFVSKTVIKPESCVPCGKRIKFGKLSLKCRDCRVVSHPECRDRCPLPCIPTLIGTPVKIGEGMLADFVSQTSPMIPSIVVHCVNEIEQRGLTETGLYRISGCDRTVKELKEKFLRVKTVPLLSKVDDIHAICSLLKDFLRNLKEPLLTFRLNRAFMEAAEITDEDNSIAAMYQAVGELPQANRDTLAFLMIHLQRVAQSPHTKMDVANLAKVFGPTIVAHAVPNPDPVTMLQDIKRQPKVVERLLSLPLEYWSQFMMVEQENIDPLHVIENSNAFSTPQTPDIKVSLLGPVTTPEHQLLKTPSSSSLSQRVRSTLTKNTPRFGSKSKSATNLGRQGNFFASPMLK
The data set is described as follows: blockers of MgcRacGAP-driven Rac1 GTP hydrolysis – biochemical, ADP Hunter fluorescence, primary and confirmatory, confirmation (AID 624330). Format: functional.

For data set [3], the target named is T2, Probable nicotinate-nucleotide adenylyltransferase (Staphylococcus aureus (strain N315), UniProt P65502). Format: functional, Staphylococcus aureus subsp. aureus N315. The following applies: read-out: IC50_Mean.
T2 sequence (P65502 whole entry): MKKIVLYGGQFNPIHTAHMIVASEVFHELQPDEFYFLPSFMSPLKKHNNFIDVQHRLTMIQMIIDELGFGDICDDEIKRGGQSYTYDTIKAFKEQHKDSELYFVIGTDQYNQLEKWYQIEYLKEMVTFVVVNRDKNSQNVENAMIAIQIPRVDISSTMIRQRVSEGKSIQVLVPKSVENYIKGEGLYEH
The nature of data set [4]: viability loss in HeLa cells – cytotoxicity control for MgcRacGAP inhibitor project, dose response (AID 624300). Format: functional.
Data set [5] deals with Glucose-6-phosphate 1-dehydrogenase (Homo sapiens, UniProt P11413). The data set is described as follows: inhibition of Homo sapiens G6PD, dose series – biochemical, fluorescence, selectivity assay for P. falciparum G6PD inhibitor project, dose response (AID 504792). It is filed as functional.
Chain of Glucose-6-phosphate 1-dehydrogenase (P11413 whole entry): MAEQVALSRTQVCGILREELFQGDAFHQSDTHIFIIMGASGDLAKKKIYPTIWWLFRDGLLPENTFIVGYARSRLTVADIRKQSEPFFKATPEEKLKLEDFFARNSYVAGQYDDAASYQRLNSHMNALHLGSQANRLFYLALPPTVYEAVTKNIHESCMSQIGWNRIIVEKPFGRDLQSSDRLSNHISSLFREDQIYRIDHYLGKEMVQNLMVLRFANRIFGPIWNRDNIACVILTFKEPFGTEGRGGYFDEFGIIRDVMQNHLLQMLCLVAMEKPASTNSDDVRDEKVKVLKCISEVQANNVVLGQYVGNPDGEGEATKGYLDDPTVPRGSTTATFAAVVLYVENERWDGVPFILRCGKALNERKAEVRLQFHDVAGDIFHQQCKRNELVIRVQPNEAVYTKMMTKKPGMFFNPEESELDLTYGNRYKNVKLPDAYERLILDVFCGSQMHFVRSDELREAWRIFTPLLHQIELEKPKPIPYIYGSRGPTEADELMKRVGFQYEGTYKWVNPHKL
The target in data set [6] is T2, Probable nicotinate-nucleotide adenylyltransferase. It is filed as functional, Staphylococcus aureus subsp. aureus N315.
The target in data set [7] is T3, Zinc finger protein mex-5 (Caenorhabditis elegans, UniProt Q9XUB2).
T3 sequence (Q9XUB2 whole entry): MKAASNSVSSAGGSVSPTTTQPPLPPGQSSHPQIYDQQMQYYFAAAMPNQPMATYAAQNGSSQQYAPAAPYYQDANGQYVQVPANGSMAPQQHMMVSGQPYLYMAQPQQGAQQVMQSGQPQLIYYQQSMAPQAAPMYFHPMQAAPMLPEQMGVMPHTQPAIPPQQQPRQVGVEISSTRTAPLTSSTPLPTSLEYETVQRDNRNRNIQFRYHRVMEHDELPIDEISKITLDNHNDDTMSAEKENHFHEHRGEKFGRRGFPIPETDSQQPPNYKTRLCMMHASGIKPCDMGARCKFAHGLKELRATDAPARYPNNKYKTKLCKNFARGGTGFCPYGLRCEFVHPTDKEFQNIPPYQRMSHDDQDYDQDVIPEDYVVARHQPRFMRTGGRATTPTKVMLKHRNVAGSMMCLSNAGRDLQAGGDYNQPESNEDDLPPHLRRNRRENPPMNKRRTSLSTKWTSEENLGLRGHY
The data set is described as follows: potency of MEX-5 RNA-binding blockers – biochemical, C. elegans, fluorescence polarization, dose response (AID 1960). In general terms: In fluorescence polarisation assays a small probe gives low polarisation when free and higher when bound to something large.

In data set [8] the target is T4, DNA repair and recombination protein RAD54-like (Homo sapiens, UniProt Q92698).
T4 sequence (Q92698 whole entry): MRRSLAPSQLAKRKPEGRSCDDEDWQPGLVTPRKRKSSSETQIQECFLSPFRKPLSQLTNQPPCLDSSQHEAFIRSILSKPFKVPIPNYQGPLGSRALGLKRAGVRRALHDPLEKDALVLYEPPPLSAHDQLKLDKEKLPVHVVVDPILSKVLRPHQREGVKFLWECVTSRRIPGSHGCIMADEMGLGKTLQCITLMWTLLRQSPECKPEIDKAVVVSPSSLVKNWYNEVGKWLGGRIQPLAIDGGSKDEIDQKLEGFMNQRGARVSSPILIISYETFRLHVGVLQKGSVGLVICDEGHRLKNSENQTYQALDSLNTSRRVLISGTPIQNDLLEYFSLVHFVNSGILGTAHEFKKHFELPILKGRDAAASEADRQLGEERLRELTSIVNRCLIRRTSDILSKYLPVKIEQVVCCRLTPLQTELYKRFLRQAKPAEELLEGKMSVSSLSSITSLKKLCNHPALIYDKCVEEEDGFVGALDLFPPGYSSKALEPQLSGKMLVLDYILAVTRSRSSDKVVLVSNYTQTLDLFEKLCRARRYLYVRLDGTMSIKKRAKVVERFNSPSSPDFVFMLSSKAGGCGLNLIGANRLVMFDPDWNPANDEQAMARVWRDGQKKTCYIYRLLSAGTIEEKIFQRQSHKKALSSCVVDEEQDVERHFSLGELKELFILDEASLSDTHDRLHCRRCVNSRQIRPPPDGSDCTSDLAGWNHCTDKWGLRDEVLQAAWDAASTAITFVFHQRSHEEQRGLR
In words: RAD54 Holliday junction migration blockers – biochemical, fluorescence, cherry-picked samples, dose series, confirmation (AID 651657). It is filed as functional.

The target in data set [9] is T5, RNA-binding protein pos-1 (Caenorhabditis elegans, UniProt G5EF15).
T5 sequence (G5EF15 whole entry): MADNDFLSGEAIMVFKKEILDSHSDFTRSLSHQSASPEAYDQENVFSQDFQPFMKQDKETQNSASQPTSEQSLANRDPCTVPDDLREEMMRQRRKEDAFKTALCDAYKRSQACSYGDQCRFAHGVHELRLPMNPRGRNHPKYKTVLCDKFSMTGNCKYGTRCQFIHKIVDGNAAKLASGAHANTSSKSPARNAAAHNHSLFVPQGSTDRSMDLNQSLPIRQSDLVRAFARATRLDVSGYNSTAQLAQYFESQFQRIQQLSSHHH
The data set is described as follows: disruptors of C. elegans POS-1 RNA interaction – biochemical, fluorescence polarization, dose response (AID 1964).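 Also: purified POS-1 fused to maltose binding protein made in E. coli; potency of compounds blocking POS-1 binding to fluorescent RNA.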

Data set [10] has as its target T6, DNA repair protein RAD52 homolog (Homo sapiens, UniProt P43351).
T6 sequence (P43351 whole entry): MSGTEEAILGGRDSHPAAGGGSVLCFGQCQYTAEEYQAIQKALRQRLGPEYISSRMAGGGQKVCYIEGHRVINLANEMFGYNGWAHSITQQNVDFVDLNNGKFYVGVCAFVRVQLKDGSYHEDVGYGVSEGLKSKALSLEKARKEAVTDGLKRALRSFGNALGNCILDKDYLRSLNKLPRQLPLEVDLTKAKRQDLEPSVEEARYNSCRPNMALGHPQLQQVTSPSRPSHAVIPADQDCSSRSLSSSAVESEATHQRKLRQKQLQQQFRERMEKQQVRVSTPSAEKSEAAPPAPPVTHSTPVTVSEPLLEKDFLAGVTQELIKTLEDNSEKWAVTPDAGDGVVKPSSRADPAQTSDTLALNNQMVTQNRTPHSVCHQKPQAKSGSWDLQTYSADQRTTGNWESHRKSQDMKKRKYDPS
It is filed as functional, biochemical.

A short description of data set [11]: blockers of HIV-1 ZM109 envelope-driven cell-cell fusion – HeLa effector, CEM target cells, luciferase, cherry-pick, dose response (AID 652058).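 Also: luciferase signal from HIV-1 Env mediated cell-cell fusion of effector and target cells.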 Format: functional, cell-based.
Data set [12] can be described thus: blockers of HIV-1 envelope-mediated cell-cell fusion – cherry-pick, dose response (AID 652057). It is filed as functional, cell-based.
The nature of data set [13]: off-target signal loss in HeLa-CEM21 co-culture – HeLa F-luc CTL cells, cherry-picked, counter-screen for HIV-1 Env fusion inhibitor project, dose response (AID 652040).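 Also: potency for signal decrease marking cytotoxic or nonspecific inhibition.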 It is filed as functional, cell-based. Background: The purpose of a counterscreen is to sort out artefacts and off-target activity.
Data set [14] can be described thus: viability loss in CEM21 cells – cell-based, CellTiter-Glo luminescence, cherry-picked, cytotoxicity control for viral fusion inhibitor project, dose response (AID 652042).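 Also: potency for signal decrease meaning cytotoxicity.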 Format: functional. In general terms: ATP-based viability assays read luminescence as a measure of living cells.
Data set [15] can be described thus: HIV-1 AD8 envelope cell-cell fusion blockers – cherry-pick, dose response (AID 652062).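 Also: luciferase signal from cell-cell fusion driven by HIV-1 clade B AD8 Env; potency is for inhibitors of fusion seen as a drop in luminescence.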 Format: functional, cell-based.
Another data set concerns the target Cytochrome P450 3A4 (Homo sapiens, UniProt P08684).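 Also: CYP3A4 tested as one member of a cytochrome P450 panel screen.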
In the next data set the target is Cytochrome P450 2C9 (Homo sapiens, UniProt P11712).
Chain of Cytochrome P450 2C9 (P11712 whole entry): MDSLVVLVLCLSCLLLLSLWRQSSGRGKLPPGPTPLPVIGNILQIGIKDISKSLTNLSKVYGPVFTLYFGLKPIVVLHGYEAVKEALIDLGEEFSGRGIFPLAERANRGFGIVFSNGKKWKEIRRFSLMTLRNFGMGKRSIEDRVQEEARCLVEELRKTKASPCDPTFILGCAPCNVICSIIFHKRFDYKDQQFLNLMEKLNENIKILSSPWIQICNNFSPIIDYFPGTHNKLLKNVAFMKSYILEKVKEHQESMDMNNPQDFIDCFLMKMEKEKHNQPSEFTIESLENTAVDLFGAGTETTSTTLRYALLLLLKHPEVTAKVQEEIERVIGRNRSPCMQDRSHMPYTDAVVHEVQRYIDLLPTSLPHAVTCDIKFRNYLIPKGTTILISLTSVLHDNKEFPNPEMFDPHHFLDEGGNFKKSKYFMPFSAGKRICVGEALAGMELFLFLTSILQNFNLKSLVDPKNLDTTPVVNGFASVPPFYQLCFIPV
A further data set has as its target T7, Cytochrome P450 1A2 (Homo sapiens, UniProt P05177).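 Also: PubChem cytochrome P450 panel assay, CYP1A2 panel member.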
T7 sequence (P05177 whole entry): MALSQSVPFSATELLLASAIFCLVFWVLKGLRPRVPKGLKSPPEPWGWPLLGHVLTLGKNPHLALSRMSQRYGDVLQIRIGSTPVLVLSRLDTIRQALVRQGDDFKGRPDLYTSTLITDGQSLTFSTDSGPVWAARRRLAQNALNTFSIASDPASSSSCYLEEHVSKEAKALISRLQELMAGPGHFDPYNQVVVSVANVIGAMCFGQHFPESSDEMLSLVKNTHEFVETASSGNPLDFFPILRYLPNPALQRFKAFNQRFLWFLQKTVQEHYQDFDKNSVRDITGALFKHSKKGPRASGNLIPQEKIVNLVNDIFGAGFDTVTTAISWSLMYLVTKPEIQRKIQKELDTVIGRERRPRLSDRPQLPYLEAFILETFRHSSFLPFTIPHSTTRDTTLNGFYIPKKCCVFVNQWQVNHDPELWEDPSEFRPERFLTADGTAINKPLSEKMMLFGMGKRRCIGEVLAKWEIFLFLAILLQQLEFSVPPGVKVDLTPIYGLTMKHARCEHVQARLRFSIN

The next data set concerns SN12K1. The data set is described as follows: cells. Format: functional. The following applies: Homo sapiens.
Another data set concerns P388. The data set is described as follows: cells. Format: functional. The settings on record: Mus musculus.
Another data set concerns P388/ADR. The data set is described as follows: cells. Format: functional. The settings on record: Mus musculus.
Data set [16] deals with T8, Hepatocyte nuclear factor 4-alpha (Homo sapiens, UniProt P41235).
T8 sequence (P41235 whole entry): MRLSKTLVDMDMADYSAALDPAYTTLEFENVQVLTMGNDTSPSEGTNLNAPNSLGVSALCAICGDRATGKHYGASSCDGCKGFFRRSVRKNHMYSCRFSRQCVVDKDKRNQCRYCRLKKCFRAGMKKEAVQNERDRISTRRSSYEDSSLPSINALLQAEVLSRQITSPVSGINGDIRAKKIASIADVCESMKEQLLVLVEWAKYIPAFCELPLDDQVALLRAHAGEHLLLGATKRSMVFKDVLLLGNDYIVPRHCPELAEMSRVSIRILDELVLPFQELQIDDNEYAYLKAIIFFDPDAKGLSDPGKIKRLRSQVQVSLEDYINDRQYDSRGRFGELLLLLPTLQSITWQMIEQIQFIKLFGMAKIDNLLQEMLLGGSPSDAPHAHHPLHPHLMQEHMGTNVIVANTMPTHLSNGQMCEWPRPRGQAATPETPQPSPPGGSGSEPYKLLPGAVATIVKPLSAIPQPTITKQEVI
Format: functional, cell-based.

The structures appear in SMILES notation. Activity calls are given as the source filed them.
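For IC50 Mean in this document: confirmatory dose-response retesting of NadD inhibitor hits first found in an ultra-high-throughput screen.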

Chain of Cytochrome P450 3A4 (P08684 whole entry): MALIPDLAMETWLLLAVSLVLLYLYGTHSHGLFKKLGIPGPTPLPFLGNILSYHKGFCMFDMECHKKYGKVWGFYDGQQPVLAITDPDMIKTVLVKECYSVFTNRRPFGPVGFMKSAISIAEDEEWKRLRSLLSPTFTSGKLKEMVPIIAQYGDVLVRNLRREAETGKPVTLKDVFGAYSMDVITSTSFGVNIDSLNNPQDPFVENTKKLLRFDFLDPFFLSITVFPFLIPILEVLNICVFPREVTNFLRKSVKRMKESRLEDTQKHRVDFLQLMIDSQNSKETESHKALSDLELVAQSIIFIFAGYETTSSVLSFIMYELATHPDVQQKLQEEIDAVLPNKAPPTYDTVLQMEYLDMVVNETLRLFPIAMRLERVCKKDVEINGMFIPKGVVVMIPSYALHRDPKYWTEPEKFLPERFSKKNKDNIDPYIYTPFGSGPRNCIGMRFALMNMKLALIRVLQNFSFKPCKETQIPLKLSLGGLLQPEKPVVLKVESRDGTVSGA

As usually defined, the AC50 is the midpoint of the concentration-response curve, whichever way the signal moves. The term CC50 denotes the concentration giving 50% cytotoxicity. Regarding `O=[N+]([O-])c1cccc(SSc2cccc([N+](=O)[O-])c2)c1`, in [1], the AC50 was 4.25 µM (active). Besides, the IC50 in [2] was 53.9 µM (active); in data set [3] it was 3.73 µM (active); in [5] it was > 80 µM (inactive); in data set [6], 1.62 µM (active). For the same compound, the cytotoxic concentration (CC50) in data set [4] is 100 µM (active).

Usually EC50 stands for the concentration needed to bring the measured effect to its halfway point. Regarding `CCNC(=O)c1cc2c(=O)n3cccc(C)c3nc2n(CCc2ccccc2)c1=N`, the figures for the EC50 in data set [7] and in data set [9] were 30 µM (active) and 4.95 µM (inconclusive), respectively. In [8], the AC50 is 17.9 µM (active).

On to `N=c1c(C(=O)NCCN2CCOCC2)cc2c(=O)n3ccccc3nc2n1CCc1ccccc1`, for which the results for the concentration at half-maximal activity (AC50) in data set [10] and in data set [8] were 10.5 µM (active) and 25.2 µM (active), respectively. Besides, the EC50 in data set [7] and in data set [9] was > 300 µM (not active) in each case.

With `C/C=C/c1ccc(OCCOCCNCc2ccccc2)c(OC)c1`, the half-maximal activity concentration (AC50) in data set [11] was 5.73 µM (active); in data set [12], 3.51 µM (active); in data set [13] it was 4.93 µM (active); in data set [14], 33.7 µM (active); in [15], 12.2 µM (active).

Consider `Cc1ccc(NC(=O)c2ccc(-c3nn(C)c(=O)c4ccccc34)cc2)cc1`, for which the half-maximal activity concentration (AC50) in data set [11] is 3.31 µM (active); in data set [12], 24.9 µM (active); in [13], 16.8 µM (active); in [14], 57.8 µM (active); in [15] it was 6.49 µM (active).

In the case of `CCOC(=O)c1c(NC(=O)c2ccc(S(=O)(=O)N3CCOCC3)cc2)sc2c1CCN(C)C2`, the AC50 in [10] is 11.6 µM (active); on Cytochrome P450 3A4 it was “inconclusive”; in data set [8], 15.3 µM (active); on Cytochrome P450 2C9 it was 14.1 µM (inconclusive); at Cytochrome P450 1A2, 12.6 µM (inconclusive).

A word on the GI50: it is the concentration giving 50% growth inhibition. Consider `O=c1cc[nH]c(=O)[nH]1` [URACIL], for which the GI50 in the data set on SN12K1 was 315 µM (inactive); in the data set with P388, 164 µM (inactive); in the data set on P388/ADR it was 292 µM (inactive).

Turning to `CCCCCNC(=O)C(c1ccc(C(F)(F)F)cc1)n1c(=O)c(-c2ccco2)nc2ccccc21` (configuration not stated), the IC50 in data set [16] is 2.85 µM (active).
